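GI50 marks 50% less growth. TGI is the concentration that stops growth completely.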
Assays:
Test in all cases: inhibition of tumour cell growth, NCI panel, 384-well format
HOP-92 NSCLC = tested on: HOP-92 NSCLC
SN12C renal = tested on: SN12C renal
NCI-H522 lung = tested on: NCI-H522 lung
OVCAR-8 ovarian = tested on: OVCAR-8 ovarian
SF-268 CNS = tested on: SF-268 CNS
A498 renal = tested on: A498 renal
DU-145 prostate = tested on: DU-145 prostate
HCT-15 colon = tested on: HCT-15 colon
TK-10 renal = tested on: TK-10 renal
MALME-3M melanoma = tested on: MALME-3M melanoma
UO-31 renal = tested on: UO-31 renal
OVCAR-3 ovarian = tested on: OVCAR-3 ovarian
NCI-H226 lung = tested on: NCI-H226 lung
MDA-MB-231 breast = tested on: MDA-MB-231 breast
SF-295 CNS = tested on: SF-295 CNS
OVCAR-4 ovarian = tested on: OVCAR-4 ovarian
SK-MEL-28 melanoma = tested on: SK-MEL-28 melanoma
CAKI-1 renal = tested on: CAKI-1 renal
MCF7 breast = tested on: MCF7 breast
NCI-H322M lung = tested on: NCI-H322M lung
CCRF-CEM leukemia = tested on: CCRF-CEM leukemia
KM12 colon = tested on: KM12 colon
MDA-MB-468 breast = tested on: MDA-MB-468 breast
SK-OV-3 ovarian = tested on: SK-OV-3 ovarian
IGROV1 ovarian = tested on: IGROV1 ovarian
OVCAR-5 ovarian = tested on: OVCAR-5 ovarian
PC-3 prostate = tested on: PC-3 prostate
U251 glioblastoma = tested on: U251 glioblastoma
T-47D breast = tested on: T-47D breast
HCC-2998 colon = tested on: HCC-2998 colon
COLO 205 colon = tested on: COLO 205 colon
SNB-19 CNS = tested on: SNB-19 CNS
SR leukemia = tested on: SR leukemia
SW-620 colon = tested on: SW-620 colon
A549 NSCLC = tested on: A549 NSCLC
RXF 393 renal = tested on: RXF 393 renal
LOX IMVI melanoma = tested on: LOX IMVI melanoma
UACC-62 melanoma = tested on: UACC-62 melanoma
UACC-257 melanoma = tested on: UACC-257 melanoma
ACHN renal = tested on: ACHN renal
HT29 colon = tested on: HT29 colon
SK-MEL-2 melanoma = tested on: SK-MEL-2 melanoma
BT-549 breast = tested on: BT-549 breast
NCI/ADR-RES ovarian = tested on: NCI/ADR-RES ovarian
MDA-MB-435 melanoma = tested on: MDA-MB-435 melanoma
M14 melanoma = tested on: M14 melanoma
HL-60(TB) leukemia = tested on: HL-60(TB) leukemia
HCT-116 colon = tested on: HCT-116 colon
MOLT-4 leukemia = tested on: MOLT-4 leukemia
RPMI-8226 leukemia = tested on: RPMI-8226 leukemia
HOP-62 NSCLC = tested on: HOP-62 NSCLC
K-562 leukemia = tested on: K-562 leukemia
NCI-H460 NSCLC = tested on: NCI-H460 NSCLC
NCI-H23 lung = tested on: NCI-H23 lung
SF-539 CNS = tested on: SF-539 CNS
786-0 renal = tested on: 786-0 renal
SK-MEL-5 melanoma = tested on: SK-MEL-5 melanoma

SMILES: CN(CC(=O)N(Cc1ccc(C2CCCCC2)cc1)c1ccc(C(=O)O)c(O)c1)S(=O)(=O)c1c(F)c(F)c(F)c(F)c1F
- GI50 (HOP-92 NSCLC): 2.65 µM
- TGI (HOP-92 NSCLC): 5.88 µM
- GI50 (SN12C renal): 2.09 µM
- TGI (SN12C renal): 3.78 µM
- GI50 (NCI-H522 lung): 1.88 µM
- TGI (NCI-H522 lung): 3.29 µM
- GI50 (OVCAR-8 ovarian): 1.92 µM
- TGI (OVCAR-8 ovarian): 3.47 µM
- GI50 (SF-268 CNS): 1.94 µM
- TGI (SF-268 CNS): 3.46 µM
- GI50 (A498 renal): 15.1 µM
- TGI (A498 renal): 28.4 µM
- GI50 (DU-145 prostate): 18.6 µM
- TGI (DU-145 prostate): 32.6 µM
- GI50 (HCT-15 colon): 1.93 µM
- TGI (HCT-15 colon): 3.36 µM
- GI50 (TK-10 renal): 14.5 µM
- TGI (TK-10 renal): 27.6 µM
- GI50 (MALME-3M melanoma): 2.52 µM
- TGI (MALME-3M melanoma): 4.96 µM
- GI50 (UO-31 renal): 12.5 µM
- TGI (UO-31 renal): 25 µM
- GI50 (OVCAR-3 ovarian): 2.19 µM
- TGI (OVCAR-3 ovarian): 4.24 µM
- GI50 (NCI-H226 lung): 2.6 µM
- TGI (NCI-H226 lung): 5.69 µM
- GI50 (MDA-MB-231 breast): 1.98 µM
- TGI (MDA-MB-231 breast): 3.47 µM
- GI50 (SF-295 CNS): 16.2 µM
- TGI (SF-295 CNS): 29.8 µM
- GI50 (OVCAR-4 ovarian): 10.7 µM
- TGI (OVCAR-4 ovarian): 22.6 µM
- GI50 (SK-MEL-28 melanoma): 2.58 µM
- TGI (SK-MEL-28 melanoma): 5.55 µM
- GI50 (CAKI-1 renal): 2.44 µM
- TGI (CAKI-1 renal): 5.2 µM
- GI50 (MCF7 breast): 1.88 µM
- TGI (MCF7 breast): 3.54 µM
- GI50 (NCI-H322M lung): 4.14 µM
- TGI (NCI-H322M lung): 12.6 µM
- GI50 (CCRF-CEM leukemia): 1.81 µM
- TGI (CCRF-CEM leukemia): 3.21 µM
- GI50 (KM12 colon): 4.16 µM
- TGI (KM12 colon): 13.4 µM
- GI50 (MDA-MB-468 breast): 2.18 µM
- TGI (MDA-MB-468 breast): 3.7 µM
- GI50 (SK-OV-3 ovarian): 4.48 µM
- TGI (SK-OV-3 ovarian): 15.5 µM
- GI50 (IGROV1 ovarian): 1.79 µM
- TGI (IGROV1 ovarian): 3.34 µM
- GI50 (OVCAR-5 ovarian): 19.1 µM
- TGI (OVCAR-5 ovarian): 33.2 µM
- GI50 (PC-3 prostate): 2.17 µM
- TGI (PC-3 prostate): 3.96 µM
- GI50 (U251 glioblastoma): 1.85 µM
- TGI (U251 glioblastoma): 3.28 µM
- GI50 (T-47D breast): 6.09 µM
- TGI (T-47D breast): 18.6 µM
- GI50 (HCC-2998 colon): 1.71 µM
- TGI (HCC-2998 colon): 3.1 µM
- GI50 (COLO 205 colon): 2.86 µM
- TGI (COLO 205 colon): 6.54 µM
- GI50 (SNB-19 CNS): 1.99 µM
- TGI (SNB-19 CNS): 3.6 µM
- GI50 (SR leukemia): 1.79 µM
- TGI (SR leukemia): 3.2 µM
- GI50 (SW-620 colon): 1.93 µM
- TGI (SW-620 colon): 3.37 µM
- GI50 (A549 NSCLC): 16.8 µM
- TGI (A549 NSCLC): 30.6 µM
- GI50 (RXF 393 renal): 1.83 µM
- TGI (RXF 393 renal): 3.41 µM
- GI50 (LOX IMVI melanoma): 1.93 µM
- TGI (LOX IMVI melanoma): 3.36 µM
- GI50 (UACC-62 melanoma): 1.92 µM
- TGI (UACC-62 melanoma): 3.36 µM
- GI50 (UACC-257 melanoma): 1.75 µM
- TGI (UACC-257 melanoma): 3.18 µM
- GI50 (ACHN renal): 12.4 µM
- TGI (ACHN renal): 24.9 µM
- GI50 (HT29 colon): 2.29 µM
- TGI (HT29 colon): 4.83 µM
- GI50 (SK-MEL-2 melanoma): 2.02 µM
- TGI (SK-MEL-2 melanoma): 3.62 µM
- GI50 (BT-549 breast): 2.1 µM
- TGI (BT-549 breast): 3.7 µM
- GI50 (NCI/ADR-RES ovarian): 15.3 µM
- TGI (NCI/ADR-RES ovarian): 28.6 µM
- GI50 (MDA-MB-435 melanoma): 2.29 µM
- TGI (MDA-MB-435 melanoma): 4.28 µM
- GI50 (M14 melanoma): 2 µM
- TGI (M14 melanoma): 3.55 µM
- GI50 (HL-60(TB) leukemia): 1.75 µM
- TGI (HL-60(TB) leukemia): 3.14 µM
- GI50 (HCT-116 colon): 1.83 µM
- TGI (HCT-116 colon): 3.29 µM
- GI50 (MOLT-4 leukemia): 1.89 µM
- TGI (MOLT-4 leukemia): 3.32 µM
- GI50 (RPMI-8226 leukemia): 1.79 µM
- TGI (RPMI-8226 leukemia): 3.18 µM
- GI50 (HOP-62 NSCLC): 5.27 µM
- TGI (HOP-62 NSCLC): 16.2 µM
- GI50 (K-562 leukemia): 2.1 µM
- TGI (K-562 leukemia): 3.56 µM
- GI50 (NCI-H460 NSCLC): 4.96 µM
- TGI (NCI-H460 NSCLC): 16.9 µM
- GI50 (NCI-H23 lung): 6.96 µM
- TGI (NCI-H23 lung): 18.3 µM
- GI50 (SF-539 CNS): 2.01 µM
- TGI (SF-539 CNS): 3.76 µM
- GI50 ([…]-0 renal): 2.61 µM
- TGI (786-0 renal): 7.22 µM
- GI50 (SK-MEL-5 melanoma): 4.6 µM
- TGI (SK-MEL-5 melanoma): 14.5 µM

Reference: PubChem BioAssay (NCI)
